# What was measured:
# Assay type in all cases: in vivo
# Viola tricolor (VIOTR) = assay: Post-emergence herbicidal action, greenhouse pot test
# In short: (§1)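 Greenhouse-grown weeds in sandy loam were sprayed post-emergence at the one-leaf stage, 2–3 weeks after sowing. Compounds were formulated as WP or EC in water with 0.5% additive at 600 l/ha, at rates of 20 g/ha or less. Visual rating after about 3 weeks used a scale from 0% (like untreated control) to 100% (plants dead).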
# [1] = test system: Polygonum convolvulus (POLCO); assay: as above
# In short: as §1
# Avena fatua (AVEFA) = assay: as above; settings: 20 g/ha, rated visually after about 3 weeks vs untreated controls, 100% = plants have died
# In short: as §1
# [2] = test system: Pharbitis purpurea (PHBPU); assay: as above
# In short: as §1
# Veronica persica (VERPE) = assay: as above
# In short: as §1
# [3] = test system: Abutilon theophrasti (ABUTH); assay: as above; settings: rated visually after about 3 weeks vs untreated controls, 100% = plants have died
# In short: as §1
# [4] = test system: Amaranthus retroflexus (AMARE); assay: as above; settings: rated visually after about 3 weeks vs untreated controls, 100% = plants have died
# In short: as §1
# Lolium rigidum (LOLRI) = assay: as above; settings: dosage 20 g/ha
# In short: as §1
# Zea mays (ZEAMX) = assay: Post-emergence crop plant compatibility, greenhouse pot test; settings: vs untreated controls
# In short: (§2)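 Greenhouse-grown crop plants sprayed post-emergence at the one-leaf stage with WP or EC formulations plus 0.5% additive, at 600 l/ha water. Damage rated visually after about 3 weeks versus untreated controls (0% = like control, 100% = dead); suffixes a/b/c denote different dosages.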
# [5] = test system: Triticum aestivum (TRZAS); assay: as above; settings: vs untreated controls
# In short: as §2
# Glycine max (GLXMA) = assay: as above; settings: 1.25 g/ha
# In short: as §2
# Setaria viridis (SETVI) = assay: Post-emergence herbicidal action, greenhouse pot test (also comparative test C)
# In short: (§3)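 Greenhouse pot plants in sandy loam were sprayed post-emergence at the one-leaf stage (2–3 weeks after sowing) with WP or EC formulations plus 0.5% additive at 600 l/ha water. Activity was rated visually after about 3 weeks versus untreated controls (100% = dead, 0% = like control); rates were 20 g/ha or less, and 5 g/ha or less in the comparative test.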
# [6] = test system: Alopecurus myosuroides (ALOMY); assay: as above; settings: rated visually after about 3 weeks vs untreated controls, 100% = plants have died
# In short: as §3
# [7] = test system: Echinochloa crus-galli (ECHCG); assay: as above
# In short: as §3
# [8] = test system: Matricaria inodora (MATIN); assay: as above
# In short: as §3
# Oryza sativa (ORYSA) = assay: Post-emergence crop plant compatibility, greenhouse pot test (also comparative test C); settings: for Post-emergence action against ORYSA (crop plant compatibility): vs untreated controls
# In short: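 Rice and other crops sprayed post-emergence at one-leaf stage (2–3 weeks after sowing) with WP or EC formulations plus 0.5% additive at 600 l/ha water. Visual rating about 3 weeks later versus untreated controls (100% = dead, 0% = like control); suffixes a–c denote different doses.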
compound,measurement,setting,value
COCCOCCOC(=O)COc1ccccc1Oc1cc(-n2c(=O)cc(C(F)(F)F)n(C)c2=O)c(F)cc1[N+](=O)[O-] [I.6-23],Post-emergence action against VIOTR,Viola tricolor (VIOTR); 1.25 g/ha,100%
same,Post-emergence action against VIOTR,Viola tricolor (VIOTR); 5 g/ha,100%
same,Post-emergence action against VIOTR,Viola tricolor (VIOTR); 20 g/ha,100%
same,Post-emergence action against POLCO in %,[1]; dosage 1.25 g/ha,90%
same,Post-emergence action against POLCO in %,[1]; dosage 5 g/ha,100%
same,Post-emergence action against POLCO in %,[1]; dosage 20 g/ha,100%
same,Post-emergence action at 20 g/ha against AVEFA in %,Avena fatua (AVEFA),90%
same,Post-emergence action against PHBPU in %,[2]; dosage 1.25 g/ha,80%
same,Post-emergence action against PHBPU in %,[2]; dosage 5 g/ha,90%
same,Post-emergence action against PHBPU in %,[2]; dosage 20 g/ha,100%
same,Post-emergence action against VERPE,Veronica persica (VERPE); 1.25 g/ha,100%
same,Post-emergence action against VERPE,Veronica persica (VERPE); 5 g/ha,100%
same,Post-emergence action against VERPE,Veronica persica (VERPE); 20 g/ha,100%
same,Post-emergence action at 1.25 g/ha against ABUTH in %,[3]; 1.25 g/ha,100%
same,Post-emergence action at 5 g/ha against ABUTH in %,[3]; 5 g/ha,100%
same,Post-emergence action at 20 g/ha against ABUTH in %,[3]; 20 g/ha,100%
same,Post-emergence action at 1.25 g/ha against AMARE in %,[4]; 1.25 g/ha,100%
same,Post-emergence action at 5 g/ha against AMARE in %,[4]; 5 g/ha,100%
same,Post-emergence action at 20 g/ha against AMARE in %,[4]; 20 g/ha,100%
same,Post-emergence action against LOLRI in %,Lolium rigidum (LOLRI),90%
same,Post-emergence action against ZEAMX (crop plant compatibility),Zea mays (ZEAMX); 1.25 g/ha,10%
same,Post-emergence action against ZEAMX (crop plant compatibility),Zea mays (ZEAMX); 5 g/ha,20%
same,Post-emergence action against TRZAS (crop plant compatibility),[5]; 1.25 g/ha,10%
same,Post-emergence action against TRZAS (crop plant compatibility),[5]; 5 g/ha,20%
same,Post-emergence action against TRZAS (crop plant compatibility),[5]; 20 g/ha,20%
same,Post-emergence action against GLXMA in %,Glycine max (GLXMA),20%
same,Post-emergence action against SETVI,Setaria viridis (SETVI); 20 g/ha,100%
same,Post-emergence action against SETVI in %,Setaria viridis (SETVI); dosage 1.25 g/ha,100%
same,Post-emergence action against SETVI in %,Setaria viridis (SETVI); dosage 5 g/ha,100%
same,Post-emergence action at 5 g/ha against ALOMY in %,[6]; 5 g/ha,80%
same,Post-emergence action at 20 g/ha against ALOMY in %,[6]; 20 g/ha,90%
same,Post-emergence action at 1.25 g/ha against ECHCG in %,"[7]; 1.25 g/ha, rated visually after about 3 weeks vs untreated controls, 100% = plants have died",80%
same,Post-emergence action against ECHCG in %,[7]; dosage 5 g/ha,90%
same,Post-emergence action against ECHCG in %,[7]; dosage 20 g/ha,100%
same,Post-emergence action against MATIN in %,[8]; dosage 1.25 g/ha,80%
same,Post-emergence action against MATIN in %,[8]; dosage 5 g/ha,100%
same,Post-emergence action against MATIN in %,[8]; dosage 20 g/ha,100%
same,Post-emergence action against ORYSA (crop plant compatibility),Oryza sativa (ORYSA); 1.25 g/ha,0%
same,Post-emergence action against ORYSA (crop plant compatibility),Oryza sativa (ORYSA); 5 g/ha,10%
same,Post-emergence action against ORYSA in %,"Oryza sativa (ORYSA); 20 g/ha, crop plant compatibility",20%
"CC(C#N)OC(=O)COc1ccccc1Oc1cc(-n2c(=O)cc(C(F)(F)F)n(C)c2=O)c(F)cc1Cl (stereo not drawn) [I.7-177, 1-Cyanoethyl (2-{2-chloro-4-fluoro-5-[3-methyl-2,6-dioxo-4-(trifluoromethyl)-3,6-dihydropyrimidin-1(2H)-yl]phenoxy}phenoxy)acetate]",pest or weed control at 1.25 g/ha,"Viola tricolor (VIOTR); Viola tricolor, 504 h, 1.25 g/ha, read-out: Post-emergence action against VIOTR",100%
same,pest or weed control at 5 g/ha,"Viola tricolor (VIOTR); Viola tricolor, 504 h, 5 g/ha, read-out: Post-emergence action against VIOTR",100%
same,pest or weed control at 20 g/ha,"Viola tricolor (VIOTR); Viola tricolor, 504 h, 20 g/ha, read-out: Post-emergence action against VIOTR",100%
same,pest or weed control at 5 g/ha,"[1]; Fallopia convolvulus, 504 h, dosage 5 g/ha, read-out: Post-emergence action against POLCO in %",80%
same,pest or weed control at 20 g/ha,"[1]; Fallopia convolvulus, 504 h, dosage 20 g/ha, read-out: Post-emergence action against POLCO in %",100%
same,pest or weed control at 20 g/ha,"Avena fatua (AVEFA); Avena fatua, 504 h, read-out: Post-emergence action at 20 g/ha against AVEFA in %",80%
same,pest or weed control at 1.25 g/ha,"[2]; Ipomoea purpurea, 504 h, dosage 1.25 g/ha, read-out: Post-emergence action against PHBPU in %",90%
same,pest or weed control at 5 g/ha,"[2]; Ipomoea purpurea, 504 h, dosage 5 g/ha, read-out: Post-emergence action against PHBPU in %",100%
same,pest or weed control at 20 g/ha,"[2]; Ipomoea purpurea, 504 h, dosage 20 g/ha, read-out: Post-emergence action against PHBPU in %",100%
same,pest or weed control at 1.25 g/ha,"Veronica persica (VERPE); Veronica persica, 504 h, 1.25 g/ha, read-out: Post-emergence action against VERPE",90%
same,pest or weed control at 5 g/ha,"Veronica persica (VERPE); Veronica persica, 504 h, 5 g/ha, read-out: Post-emergence action against VERPE",100%
same,pest or weed control at 20 g/ha,"Veronica persica (VERPE); Veronica persica, 504 h, 20 g/ha, read-out: Post-emergence action against VERPE",100%
same,pest or weed control at 1.25 g/ha,"[3]; Abutilon theophrasti, 504 h, 1.25 g/ha, read-out: Post-emergence action at 1.25 g/ha against ABUTH in %",100%
same,pest or weed control at 5 g/ha,"[3]; Abutilon theophrasti, 504 h, 5 g/ha, read-out: Post-emergence action at 5 g/ha against ABUTH in %",100%
same,pest or weed control at 20 g/ha,"[3]; Abutilon theophrasti, 504 h, 20 g/ha, read-out: Post-emergence action at 20 g/ha against ABUTH in %",100%
same,pest or weed control at 1.25 g/ha,"[4]; Amaranthus retroflexus, 504 h, 1.25 g/ha, read-out: Post-emergence action at 1.25 g/ha against AMARE in %",100%
same,pest or weed control at 5 g/ha,"[4]; Amaranthus retroflexus, 504 h, 5 g/ha, read-out: Post-emergence action at 5 g/ha against AMARE in %",100%
same,pest or weed control at 20 g/ha,"[4]; Amaranthus retroflexus, 504 h, 20 g/ha, read-out: Post-emergence action at 20 g/ha against AMARE in %",100%
same,pest or weed control at 20 g/ha,"Lolium rigidum (LOLRI); Lolium rigidum, 504 h, read-out: Post-emergence action against LOLRI in %",80%
same,Post-emergence action against TRZAS (crop plant compatibility),[5]; 1.25 g/ha,0%
same,Post-emergence action against GLXMA in %,Glycine max (GLXMA),0%
same,pest or weed control at 20 g/ha,"Setaria viridis (SETVI); Setaria viridis, 504 h, 20 g/ha, read-out: Post-emergence action against SETVI",100%
same,pest or weed control at 1.25 g/ha,"Setaria viridis (SETVI); Setaria viridis, 504 h, dosage 1.25 g/ha, read-out: Post-emergence action against SETVI in %",100%
same,pest or weed control at 5 g/ha,"Setaria viridis (SETVI); Setaria viridis, 504 h, dosage 5 g/ha, read-out: Post-emergence action against SETVI in %",100%
same,pest or weed control at 5 g/ha,"[6]; Alopecurus myosuroides, 504 h, 5 g/ha, read-out: Post-emergence action at 5 g/ha against ALOMY in %",90%
same,pest or weed control at 20 g/ha,"[6]; Alopecurus myosuroides, 504 h, 20 g/ha, read-out: Post-emergence action at 20 g/ha against ALOMY in %",100%
same,pest or weed control at 5 g/ha,"[7]; Echinochloa crus-galli, 504 h, dosage 5 g/ha, read-out: Post-emergence action against ECHCG in %",100%
same,pest or weed control at 20 g/ha,"[7]; Echinochloa crus-galli, 504 h, dosage 20 g/ha, read-out: Post-emergence action against ECHCG in %",100%
same,pest or weed control at 1.25 g/ha,"[8]; Tripleurospermum inodorum, 504 h, dosage 1.25 g/ha, read-out: Post-emergence action against MATIN in %",80%
same,pest or weed control at 5 g/ha,"[8]; Tripleurospermum inodorum, 504 h, dosage 5 g/ha, read-out: Post-emergence action against MATIN in %",80%
same,pest or weed control at 20 g/ha,"[8]; Tripleurospermum inodorum, 504 h, dosage 20 g/ha, read-out: Post-emergence action against MATIN in %",80%
same,Post-emergence action against ORYSA (crop plant compatibility),Oryza sativa (ORYSA); 1.25 g/ha,0%
